According to patent US20090214420A1, “Method of Diagnosis and Treatment and Agents Useful for Same” (MEDVET SCIENCE PTY. LTD., priority 2005, published 2009):
“Also recorded” adds a separate entry of the source.

What was measured:
Assay type in all cases: cell-based, human
Jurkat cells [1] = assay: Flow cytometry (PI, La, hTERT, TRF2 staining) of Jurkat cells after cytotoxic treatment; details: FIG. 4B; for hTERT staining of Jurkat cells: 48 h treatment, only in PI high cells
Method: (§1) FIG. 4 is a graphical representation of the cytotoxic treatment of malignant human cells results in increased expression of TRF2 and La in apoptotic cells 24 h after treatment and in increased expression of hTERT in apoptotic cells 48 h after treatment. A. Jurkat cells after 24 h treatment with cytotoxic agents. […] B. Jurkat cells after 48 h treatment with cytotoxic agents. […] C. Raji cells after 24 h treatment with cytotoxic agents. […] D. Jurkat cells after 24 h treatment with cytotoxic agents. […] E. Jurkat cells after 48 h treatment with cytotoxic agents. Staining for La (3B9-F1TC) and TRF2 in apoptotic cells was more evident 48 h after treatment with all cytotoxic agents. F. Raji cells after 48 h treatment with cytotoxic agents. […] G. HeLa cells after 48 h treatment with cytotoxic agents. […] In each case, the staining is indicated above each column of panels and the cytotoxic employed is indicated to the left of each row of panels. Also indicated is a PI only control and negative controls for hTERT staining (purified rat IgG or anti-rat secondary antibody alone) and for TRF2 staining (purified mouse IgG or anti-mouse secondary antibody alone).
(§2) The Jurkat and Raji cell lines were cultured in RPMI supplemented with 10% FCS, 50 U/mL penicillin and 50 μg/mL streptomycin sulphate and the U2OS and HeLa cell lines were cultured in DMEM supplemented with 10% FCS, 50 U/mL penicillin and 50 μg/mL streptomycin sulphate (JRH Laboratories). The cell lines were treated for 24 or 48-hour periods with various cytotoxic agents as follows: Jurkat and Raji cells with etoposide, 20 μg/mL; HeLa and U2OS cells with cisplatin, 1 μg/mL, and vincristine, 0.1 μg/mL; Jurkat, HeLa and U2OS cells with 0.5 μM STS, and Raji cells with 2 μM STS. The treated cells were stained with propidium iodide (PI) (Sigma) 0.5 μg/mL and FITC-conjugated Sal5 or 3B9 mAb, or mouse anti-TRF2 mAb (clone 36, Becton-Dickinson) and then secondary antibody, anti mouse FITC (Chemicon, Temecula, Calif., USA), or rat anti-hTERT mAb (clone 36-10, Alexis Biochemicals) and then secondary antibody, anti rat FITC (Caltag, Burlingame, Calif., USA). Purified mouse IgG or rat IgG (Institute of Medical and Veterinary Science, Adelaide, Australia) were used as negative controls for TRF2 and hTERT staining, respectively. To further improve the method for detection of hTERT for later use in whole blood staining, which appeared to have been hindered by the presence of autofluorescence presumably emanating from red blood cells, anti-hTERT monoclonal antibody clone 36-10 was conjugated directly to AlexaFluor350 (Molecular Probes), which is excited at 355 nm and emits maximally between 420-460 nm. Anti-hTERT-Alexa350 was combined with the EpCAM monoclonal antibody (BD Biosciences), which is conjugated to PE that excites at 488 nm and emits 560-590 nm, and the nuclear impermeant DNA-binding dye TOPRO-3 (Molecular Probes), which excites at 560 nm and emits maximally in the far red region (>650 nm).
The human T cell leukemia cell line, Jurkat, and the human B lymphoma cell line, Raji, were treated for 24 or 48 hour periods with the following cytotoxic agents: staurosporine, which is a pan-kinase inhibitor, etoposide, which is a topoisomerase II inhibitor, vincristine, which is a microtubule depolymerising agent and cisplatin, which is a DNA cross linking agent. Cells were then stained with propidium iodide (PI) and the anti-La monoclonal antibody (mAb), 3B9, or its isotype control, Sal5, or with mAbs specific for hTERT or TRF2. As negative controls for staining with the hTERT- or TRF2-specific mAbs, rat IgG and anti-rat secondary antibody or mouse IgG and anti-mouse secondary antibody, respectively, were used.

Raji cells = assay: Flow cytometry (PI, La, hTERT, TRF2 staining) of Raji cells after cytotoxic treatment; details: for TRF2 staining of Raji cells: 48 hours, FIG. 4F
Method: as §1
as §2, with “Anti-hTERT-Alexa350 was combined with the EpCAM monoclonal antibody (BD Biosciences), which is conjugated to PE that excites at 488 nm and emits 560-590 nm, and the nuclear impermeant DNA-binding dye TOPRO-3 (Molecular Probes), which excites at 560 nm and emits maximally in the far red region (>650 nm).” left out

HeLa cells = assay: Flow cytometry (PI, La, hTERT, TRF2 staining) of HeLa cells after cytotoxic treatment; details: FIG. 4G; for apoptosis and La staining in HeLa cells: 48 h treatment
Method: as §1, §2
Similarly, TRF2 staining of PI^+ dead Jurkat cells was evident as soon as 24 hours after cytotoxic treatment (FIG. 4D) and 48 hours afterwards (F1G. 4E). […] In contrast, it took 48 hours after treatment with cisplatin, etoposide and vincristine for hTERT staining of PI^+ dead Jurkat cells to be evident (arrows, FIG. 4B). hTERT staining of PI^+ dead Raji cells was evident 48 hours after treatment with vincristine (arrow, FIG. 4C). As additional controls, the telomerase-expressing human cervical carcinoma cell line, HeLa, and the telomerase-negative human osteosarcoma cell line, U2OS (M Frolkis et al. Cancer Gene Therapy 10, 239-249, 2003), were also treated with staurosporine, vincristine and etoposide and analysed by flow cytometry 48 hours after treatment.

U2OS cells [2] = assay: Flow cytometry (PI, La, hTERT, TRF2 staining) of U2OS cells after cytotoxic treatment; details: FIG. 4H
Method: as §1, §2
Similarly, TRF2 staining of PI^+ dead Jurkat cells was evident as soon as 24 hours after cytotoxic treatment (FIG. 4D) and 48 hours afterwards (F1G. 4E). […] As additional controls, the telomerase-expressing human cervical carcinoma cell line, HeLa, and the telomerase-negative human osteosarcoma cell line, U2OS (M Frolkis et al. Cancer Gene Therapy 10, 239-249, 2003), were also treated with staurosporine, vincristine and etoposide and analysed by flow cytometry 48 hours after treatment.

H69 cells = assay: BerEP4-FITC / PI staining of etoposide-treated H69 cells; details: 48 hours
Method: FIG. 8 is a graphical representation of the staining of H69 cells using the anti-epithelial marker monoclonal antibody BerEP4-FITC. H69 cells (1×10^6 cells/mL) were cultured in RPMI-1640 containing 5% FCS in the absence or presence of the specified concentrations of etoposide (0-400 μg/mL). After 48 hours of incubation, cells were collected and incubated at room temperature for 15 minutes with (A) 5 μg/mL BerEP4-FITC or (B) 5 μg/mL mouse IgG2aκ-FITC isotype. Cells were washed and pellets were resuspended in 0.5 μg/mL solution of PI in PBS then analysed by flow cytometry.

U2OS cells [3] = assay: Viability analysis using trypan blue staining after induction of apoptosis, U2OS cells; details: 0.5 μM staurosporine
Method: (§3) Jurkat cells (ATCC #TIB-152) were maintained in RPMI 1640 supplemented with 5% fetal calf serum (FCS). U2OS cells (ATCC #HTB-96) were maintained in DMEM supplemented with 5% FCS and passaged every 48-72 hours after detachment with Trypsin EDTA. Jurkat cells express telomerase and thus have the integral RNA component, hTR, whereas U2OS cells lack telomerase and hTR. Apoptosis was induced by the addition of 0.5 μM staurosporine to the culture media for 24, 48 or 72 hours.
(§4) The RNA for hTR was not detected in the hTR-negative U2OS cells but was detected in the hTR-positive Jurkat cells 24, 48 and 72 hours after the induction of apoptosis.

Jurkat cells [4] = assay: Viability analysis using trypan blue staining after induction of apoptosis, Jurkat cells; details: 0.5 μM staurosporine
Method: as §3, §4

PBMC = assay: hTERT / 7-AAD staining of PBMC after staurosporine-induced apoptosis; details: 24 hours after induction of apoptosis, 1 μM staurosporine, FIG. 5
Method: (§5) FIG. 5 is a graphical representation of the culturing of PMBC with conconavalin A (conA) 10 μg/mL for 72 h. Viable cells were obtained by density gradient centrifugation and then apoptosis was induced using 1 μM staurosporine for 24 h. Jurkat cells were also treated with 1 μM staurosporine for 24 h. Dot plots depict staining for 7-AAD and hTERT. The negative control is staining with the secondary antibody alone.
(§6) Peripheral blood mononuclear cells (PBMC) were prepared from a buffy coat of a discarded unit of whole blood that had been obtained from the South Australian Red Cross Blood Bank. Initially, PBMC had been separated by density gradient centrifugation over Lymphoprep (Axis-Shield, Dundee, UK) and frozen in aliquots using a controlled rate freezer. […]
(§7) After treatment, all cells were harvested, washed in PBS and stained with 7-amino actinomycin D (7-AAD) (2 μg/mL) and anti-La 3B9 mAb or its isotype control mAb, Sal5, and then with the secondary anti-mouse antibody conjugated to R-phycoerythrin (Zymed, San Francisco, Calif., USA), or with rat anti-hTERT mAb (Alexis Biochemicals, San Diego, Calif., USA) and then with the secondary anti-rat antibody conjugated to FITC (Chemicon). Cells were analysed using a FACScan (Becton Dickinson, Franklin Lakes, N.J., USA) and the results analysed with WinMDI v2.8 software.

Jurkat cells [5] = assay: hTERT / 7-AAD staining of Jurkat cells after staurosporine-induced apoptosis; details: 24 hours after induction of apoptosis, 1 μM staurosporine, FIG. 5
Method: as §5, §6, §7

N.N.[Cl][Pt][Cl] [cisplatin]
hTERT staining of Jurkat cells (Jurkat cells [1]): increased staining for hTERT
time after treatment for hTERT staining of PI+ dead Jurkat cells to be evident (Jurkat cells [1]): 48 h
TRF2 staining of Raji cells (Raji cells): slightly increased staining; also recorded: increased TRF2 staining

COc1cc([C@@H]2c3cc4c(cc3[C@@H](O[C@@H]3O[C@@H]5CO[C@@H](C)O[C@H]5[C@H](O)[C@H]3O)[C@H]3COC(=O)[C@H]23)OCO4)cc(OC)c1O [etoposide]
hTERT staining of Jurkat cells (Jurkat cells [1]): increased staining for hTERT
time after treatment for hTERT staining of PI+ dead Jurkat cells to be evident (Jurkat cells [1]): 48 h
TRF2 staining of PI+ dead HeLa cells (HeLa cells; 48 hours after treatment): Evident staining; also recorded: little staining for TRF2
hTERT staining of PI+ dead HeLa cells (HeLa cells; 48 hours after treatment): Evident staining; also recorded: staining for hTERT
apoptosis and La staining in HeLa cells (HeLa cells): induced apoptosis
hTERT staining of PI+ dead U2OS cells (U2OS cells [2]; 48 hours after treatment): not
etoposide concentration giving maximal proportion of dead (BerEP4+ PI+) H69 carcinoma cells (H69 cells; FIG. 8A): 200 to 400 µg/mL
extent of cell death of H69 cells (H69 cells; etoposide 0-400 μg/mL, FIG. 8): dose-dependent

CN[C@@H]1C[C@H]2O[C@@](C)([C@@H]1OC)n1c3ccccc3c3c4c(c5c6ccccc6n2c5c31)C(=O)NC4 [staurosporine]
U2OS cells dead (trypan blue) (U2OS cells [3]; 24 hours): 36%
U2OS cells dead (trypan blue) (U2OS cells [3]; 48 hours): 95%
U2OS cells dead (trypan blue) (U2OS cells [3]; 72 hours): 100%
Jurkat cells dead (trypan blue) (Jurkat cells [4]; 24 hours): 40%
Jurkat cells dead (trypan blue) (Jurkat cells [4]; 48 hours): 85%
Jurkat cells dead (trypan blue) (Jurkat cells [4]; 72 hours): 100%
hTERT staining of PI+ dead HeLa cells (HeLa cells; 48 hours after treatment): Evident staining; also recorded: staining for hTERT
apoptosis and La staining in HeLa cells (HeLa cells): induced apoptosis
TRF2 staining of PI+ dead U2OS cells (U2OS cells [2]; 48 hours after treatment): no corresponding staining
hTERT staining of PI+ dead U2OS cells (U2OS cells [2]; 48 hours after treatment): not and no corresponding staining
apoptosis and La staining in U2OS cells (U2OS cells [2]; 48 h treatment): induced apoptosis
telomerase expression in dead PBMC (PBMC): little if any
telomerase expression in Jurkat cells (Jurkat cells [5]): little if any

CC[C@]1(O)C[C@H]2CN(CCc3c([nH]c4ccccc34)[C@@](C(=O)OC)(c3cc4c(cc3OC)N(C=O)[C@H]3[C@@](O)(C(=O)OC)[C@H](OC(C)=O)[C@]5(CC)C=CCN6CC[C@]43[C@@H]65)C2)C1 [vincristine]
hTERT staining of Jurkat cells (Jurkat cells [1]): increased staining for hTERT
time after treatment for hTERT staining of PI+ dead Jurkat cells to be evident (Jurkat cells [1]): 48 h
hTERT staining of Raji cells (Raji cells; 24 h treatment (legend FIG. 4C)): marginally increased staining
hTERT staining of PI+ dead Raji cells (Raji cells; 48 hours after treatment (text, FIG. 4C)): evident
TRF2 staining of Raji cells (Raji cells): slightly increased staining; also recorded: increased TRF2 staining
hTERT staining of PI+ dead HeLa cells (HeLa cells; 48 hours after treatment): Evident staining; also recorded: staining for hTERT
apoptosis and La staining in HeLa cells (HeLa cells): induced apoptosis
hTERT staining of PI+ dead U2OS cells (U2OS cells [2]; 48 hours after treatment): not
